The structures appear in SMILES notation.

The subject of one assay is anesthetized beagle dogs. Put plainly: Myocardial blood flow and metabolism in fasted, closed-chest, anesthetized, electrically paced beagle dogs. The assay is classed as in vivo, dog. The conditions noted are these: 0.02 to 0.1 millimole/kg intravenously; in the presence and absence of isoprenaline. The protocol: The ability of compounds of formula (I) to reduce oxygen demand and affect the relative utilization of carbohydrate and lipid metabolites in the heart may be assessed by measuring the effect of the compounds on myocardial blood flow and metabolism in fasted, closed-chest, anesthetized beagle dogs, with cardiac catheterization to enable simultaneous sampling of coronary sinus and arterial blood to be carried out. Coronary sinus blood flow is measured by the hydrogen gas clearance technique described by Aukland et al (Circulation Res. 1964, 14, 164). The heart is paced electrically at 155 beats/min. and recordings of hemodynamic parameters (blood pressure, left ventricular pressure and the first derivative of the latter) are made continuously. Control measurements of coronary blood flow are made and samples of blood taken at 40 min. intervals, both in an untreated animal and in the same animal dosed with an infusion of isoprenaline ([…].), which both stimulates cardiac contraction and increases plasma free fatty acid levels. The compound of formula (I) is then administered intravenously and measurements are made and samples taken again, 40 minutes and 90 minutes later. The blood samples from the artery and coronary sinus are analyzed for oxyhemoglobin, pyruvate and free fatty acid (FFA) content, differences between those of the arterial and coronary sinus blood, when multiplied by coronary blood flow, being a measure of oxygen consumption, pyruvate uptake and FFA uptake by the myocardium respectively.

Assay [1] relates to pyruvate dehydrogenase (PDH). In words: Proportion of active pyruvate dehydrogenase (PDHa/PDHt) in hearts of fat-fed rats after dosing. The conditions noted are these: rat heart. The assay is classed as in vivo. The protocol:
(2) Rats fed on a high fat diet as in test (1) (a), are treated either with placebo or with the compound of formula (I), by subcutaneous or intravenous injection or by oral administration, and at various times after treatment the rat hearts are removed and homogenized, under conditions which minimize changes in the proportion of the pyruvate dehydrogenase enzyme which is present in the active form, as described by Whitehouse and Randle (Biochem. J. 1973, 134, 651). The total amount of the enzyme present (PDHt) and the amount which is present in the active form (PDHa) are assessed by a method similar to that described by Taylor et al (J. Biol. Chem. 1973, 248, 73). The fat-feeding process is found to depress the ratio PDHa/PDHt from a normal value of about 0.7 to a value in the range from 0.05 to 0.2.

In the case of `O=C(O)C(=O)c1ccc(O)cc1` [OH, H, OH, p-hydroxyphenylglyoxylic acid], in the assay with anesthetized beagle dogs, the myocardial blood flow entry is listed as “increased”, the myocardial oxygen consumption entry is on record as “decreased”, the myocardial pyruvate uptake entry is “increases” and the “period of increased myocardial pyruvate uptake after dosing” value is recorded as “at least 90 minutes”.
With `CSc1ccc(C(=O)C(=O)O)cc1` [SCH3, H, OH, p-(methylthio)phenylglyoxylic acid], the “PDHa/PDHt ratio at 1.5 hours” value in assay [1] (dose 0.6 mM/kg subcutaneous, placebo ratio 0.12) is recorded as 0.24; in assay [1] (dose 1.2 mM/kg subcutaneous, placebo ratios 0.11-0.24), 0.47.
